# Laboratory results from patent publication US20250064886A1, “CARDIOVASCULAR AND CEREBROVASCULAR DRUG AND USE THEREOF” (HANGZHOU ADAMERCK PHARMLABS INC., priority 2021, published 2025).
# Marks after values point to notes of the source that are not given here.
# What was measured:
# [1] = system: vascular endothelial injury induced thrombosis model in zebrafish; assay: Preventative effect on vascular endothelial injury induced thrombosis, ponatinib zebrafish model (Example 1); assay type: in vivo; details: 4.00 ng/tail injected
# Experimental: Experimental method: 420 tails of 5 dpf wild type AB strain zebrafish were randomly selected and placed in a six-well plate, with 30 fish per well (experimental group). The fish were injected with compound (1), compound (2), compound (3), compound (4), compound (5), compound (6), compound (7), compound (8), compound (9), compound (10), and compound (11) (structural formula shown in Table 1) at a dose of 4.00 ng/tail, with positive control drug acetylsalicylic acid being administered by dissolving it in water at a concentration of 30.0 µg/mL. Normal control group (i.e. zebrafish treated with standard diluted water) and model control group were set up, with a capacity of 3 mL per well (experimental group). Except for normal control group, the remaining experimental groups were all given Punatinib by dissolving it in water to induce vascular endothelial injury induced thrombosis model in zebrafish. The zebrafish were stained with o-dianisidine after co-treatment with ponatinib and samples for a period of time under incubation conditions at 28° C.
# After staining, 10 zebrafish in each group were randomly selected and photographed under the microscope, and the intensity of cardiac erythrocyte staining in zebrafish was analyzed using NIS-Elements D 3.20 advanced image-processing software, and the samples were evaluated for the preventative effect on vascular endothelial injury induced thrombosis by the statistical results of cardiac erythrocyte staining intensity.
# The preventative effect on thrombosis is calculated as follows: […]
# Statistical analysis was performed using SPSS software, and p<0.05 indicates significant differences
# [2] = system: lipid ROS levels in Erastin-induced nerve cells; assay: Lipid ROS levels (C11-BODIPY probe) in Erastin-induced nerve cells (Example 8); assay type: cell-based, rat; details: Erastin 50 μM
# Experimental: (§1) Experimental method: Primary neuron cells were incubated in a medium containing Erastin (final concentration of 50 μM) for 24 hours, and then incubated in a medium containing different concentrations of the test drug and Erastin (final concentration of 50 μM) for another 24 hours. After incubation, Real time PCR was used to detect mRNA expression of GPX4 in each group of cells, CCK8 assay was used to detect cell viability in each group of cells, C11-BODIPY probe method was used to detect intracellular lipid ROS levels in each group of cells, and PGSK probe method was used to detect iron content in cells.
# (§2) The experimental data were expressed in means±SD, and statistical differences between groups were determined using one-way ANOVA and Tukey's test, with p-values less than 0.05 considered significant.
# After incubation, the C11-BODIPY probe method was used to detect the lipid ROS levels in each group of cells. The results were presented as Mean±SD. Compared with the control group, ***p<0.0001; compared with the model group, #p<0.05, ##p<0.01.
# [3] = system: Erastin-induced neuronal cells; assay: Cell viability (CCK8) of Erastin-induced neuronal cells (Example 8); assay type: cell-based, rat; details: for Cell viability (%): Erastin 50 μM
# Experimental: as §1, §2
# After incubation, the CCK8 experiment was used to detect the cell viability of each group of cells. The results were presented as Mean±SD. Compared with control group, ***p<0.0001. Compared with model control group, ^#P<0.05, ^##P<0.01.
# [4] = system: vascular inflammation in high-glucose and high-fat zebrafish; assay: Regressive effect on vascular inflammation in high-glucose and high-fat zebrafish (Example 9); assay type: in vivo
# Experimental: Experimental method: 360 tails of 5 dpf macrophage fluorescent zebrafish were randomly selected and placed in beakers with 30 tails in each beaker, compound (1), compound (3), and compound (5) were given intravenously, and the positive control group was given atorvastatin calcium by dissolving it in water at a concentration of 30 μg/mL, while the normal control group (fish farming water-treated zebrafish) and the model control group were set up, and the volume of each beaker (experimental group) was 25 mL. Except for the normal control group, all other groups were given high-lipids and high-sucrose feed by dissolving it in water. Compound (1), compound (3) and compound (5) group were co-treated with high-lipids and high-sucrose feed for 30 h. The treatment was carried out up to 9 dpf, and 10 zebrafish were randomly selected from each experimental group to collect the intensity of the macrophage fluorescence within the tail vein and around the tail vein of the zebrafish under fluorescence microscope, and the results of the statistical analysis were used to evaluate the regressive effect of compound (1), compound (3), compound (5) on zebrafish vascular inflammation in the high sugar and high fat model.
# GPX4 mRNA = GPX4 mRNA expression (real time PCR) in Erastin-induced neuronal cells (Example 8); assay type: cell-based, rat; details: Erastin 50 μM
# Experimental: as §1, §2
# After incubation, real time PCR was used to detect the mRNA expression of GPX4 in each group of cells. The results were presented as Mean±SD. Compared with the control group, ***p<0.0001; Compared with the model group, #p<0.05, […].
# [5] = system: iron content in Erastin-induced neuronal cells; assay: Iron content (PGSK probe) in Erastin-induced neuronal cells (Example 8); assay type: cell-based, rat; details: Erastin 50 μM
# Experimental: as §1, §2
# After incubation, the PGSK probe method was used to detect the intracellular iron content. The results were presented as Mean±SD. Compared with the control group, ***p<0.0001; Compared with the model group, #p<0.05, ##p<0.01.
# [6] = 1 μM, 24 h, control = 100, Mean±SD
# [7] = 1 μM, control about 1.00, Mean±SD
# [8] = 1 μM, control = 100, PGSK fluorescence, weaker = more iron
Compound,Preventative effect on thrombosis (%) [1],"Cardiac erythrocyte staining intensity (pixels, mean ± SE) ([1]; n = 10)","Lipid ROS levels (%) ([2]; 1 μM, control = 100, Mean±SD)",Lipid ROS levels (%) ([2]; 2.5 μM),Lipid ROS levels (%) ([2]; 5 μM),Lipid ROS levels (%) ([2]; 10 μM),Lipid ROS levels (%) ([2]; 20 μM),Lipid ROS levels (%) ([2]; 40 μM),"Cell viability (%) [3, 6]",Cell viability (%) ([3]; 2.5 μM),Cell viability (%) ([3]; 5 μM),Cell viability (%) ([3]; 10 μM),Cell viability (%) ([3]; 20 μM),Cell viability (%) ([3]; 40 μM),Expression of GPX4 mRNA (GPX4 mRNA; [7]),Expression of GPX4 mRNA (GPX4 mRNA; 2.5 μM),Expression of GPX4 mRNA (GPX4 mRNA; 5 μM),Expression of GPX4 mRNA (GPX4 mRNA; 10 μM),Expression of GPX4 mRNA (GPX4 mRNA; 20 μM),Expression of GPX4 mRNA (GPX4 mRNA; 40 μM),further results
CC(=O)N[C@H](CSCC1OC2OC3C(CSC[C@@H](NC(C)=O)C(=O)[O-])OC(OC4C(CSC[C@@H](NC(C)=O)C(=O)[O-])OC(OC5C(CSC[C@@H](NC(C)=O)C(=O)[O-])OC(OC6C(CSC[C@@H](NC(C)=O)C(=O)[O-])OC(OC7C(CSC[C@@H](NC(C)=O)C(=O)[O-])OC(OC1C(O)C2O)C(O)C7O)C(O)C6O)C(O)C5O)C(O)C4O)C(O)C3O)C(=O)[O-].[Na+].[Na+].[Na+].[Na+].[Na+].[Na+] (stereo partly drawn) [Compound (3)],17%,3045 ± 219 pixels,146.56 ± 7.67%,141.34 ± 4.22%,136.81 ± 7.9%,132.38 ± 2.23%,125.33 ± 9.79^# %,120.37 ± 10.16^## %,52.87 ± 2.55%,56.6 ± 4.76%,62.52 ± 8.51%,66.77 ± 6.27%,73.21 ± 8.1^# %,77.95 ± 6.34^## %,0.4359 ± 0.05,0.4875 ± 0.01,0.5407 ± 0.06,0.6152 ± 0.07^##,0.6765 ± 0.07^##,0.7421 ± 0.08^##,"Cardiac erythrocyte staining intensity (pixels, mean ± SE) ([1]; n = 10, listed as compound (3)): 3045 pixels; Concentration above which cell viability was significantly increased compared with the model group ([3]; p<0.05): greater than 10 μM; Anti-inflammatory effect (%) ([4]; 11.1 ng/tail intravenous): 38*** %; Fluorescence intensity of perivascular macrophage (pixels, Mean ± SE) ([4]; 11.1 ng/tail intravenous): 113809 ± 7995 pixels; Anti-inflammatory effect (%) ([4]; 33.3 ng/tail intravenous): 36*** %; Fluorescence intensity of perivascular macrophage (pixels, Mean ± SE) ([4]; 33.3 ng/tail intravenous): 118747 ± 6434 pixels; Anti-inflammatory effect (%) ([4]; 100 ng/tail intravenous): 36*** %; Fluorescence intensity of perivascular macrophage (pixels, Mean ± SE) ([4]; 100 ng/tail intravenous): 118504 ± 10539 pixels; Iron content (PGSK probe) [5, 8]: 56.48 ± 3.32^; Iron content (PGSK probe) ([5]; 2.5 μM): 62.3 ± 7; Iron content (PGSK probe) ([5]; 5 μM): 67.06 ± 11.62; Iron content (PGSK probe) ([5]; 10 μM): 71.61 ± 9.86^; Iron content (PGSK probe) ([5]; 20 μM): 76.67 ± 7.25^#; Iron content (PGSK probe) ([5]; 40 μM): 83.81 ± 9.91^##"
"CC(C)c1c(C(=O)Nc2ccccc2)c(-c2ccccc2)c(-c2ccc(F)cc2)n1CC[C@@H](O)C[C@@H](O)CC(=O)[O-].CC(C)c1c(C(=O)Nc2ccccc2)c(-c2ccccc2)c(-c2ccc(F)cc2)n1CC[C@@H](O)C[C@@H](O)CC(=O)[O-].[Ca+2] [Atorvastatin calcium, atorvastatin calcium, reference compound]",,,,,,,,,,,,,,,,,,,,,"Anti-inflammatory effect (%) ([4]; 30 μg/mL in water): 42*** %; Fluorescence intensity of perivascular macrophage (pixels, Mean ± SE) ([4]; 30 μg/mL in water, n = 10): 106352 ± 6663 pixels"
CC(=O)N[C@H](CSCC1OC2OC3C(CSC[C@@H](NC(C)=O)C(=O)[O-])OC(OC4C(CSC[C@@H](NC(C)=O)C(=O)[O-])OC(OC5C(CSC[C@@H](NC(C)=O)C(=O)[O-])OC(OC6C(CSC[C@@H](NC(C)=O)C(=O)[O-])OC(OC7C(CSC[C@@H](NC(C)=O)C(=O)[O-])OC(OC8C(CSC[C@@H](NC(C)=O)C(=O)[O-])OC(OC1C(O)C2O)C(O)C8O)C(O)C7O)C(O)C6O)C(O)C5O)C(O)C4O)C(O)C3O)C(=O)[O-].[Na+].[Na+].[Na+].[Na+].[Na+].[Na+].[Na+] (stereo partly drawn) [Compound (5)],64%,4340 ± 255 pixels,145.89 ± 5.33%,141.47 ± 6.53%,133.09 ± 9.69%,128.99 ± 9.84^# %,122.71 ± 8.5^## %,114.82 ± 7.13^## %,58.95 ± 7.21%,62.63 ± 7.82%,67.38 ± 6.73%,73.74 ± 7.33^# %,79.85 ± 6.34^## %,84.2 ± 4.71^## %,0.4777 ± 0.07^,0.5373 ± 0.08^,0.6033 ± 0.06^#,0.6942 ± 0.01^##,0.7693 ± 0.1^##,0.8368 ± 0.07^##,"Cardiac erythrocyte staining intensity (pixels, mean ± SE) ([1]; n = 10, listed as compound (5)): 4340 pixels; Anti-inflammatory effect (%) ([4]; 27.8 ng/tail intravenous): 38*** %; Fluorescence intensity of perivascular macrophage (pixels, Mean ± SE) ([4]; 27.8 ng/tail intravenous): 113678 ± 4811 pixels; Anti-inflammatory effect (%) ([4]; 83.3 ng/tail intravenous): 36*** %; Fluorescence intensity of perivascular macrophage (pixels, Mean ± SE) ([4]; 83.3 ng/tail intravenous): 118039 ± 9198 pixels; Anti-inflammatory effect (%) ([4]; 250 ng/tail intravenous): 37*** %; Fluorescence intensity of perivascular macrophage (pixels, Mean ± SE) ([4]; 250 ng/tail intravenous): 115627 ± 5934 pixels; Iron content (PGSK probe) [5, 8]: 56.75 ± 9.31^; Iron content (PGSK probe) ([5]; 2.5 μM): 68.32 ± 6.01^; Iron content (PGSK probe) ([5]; 5 μM): 72.65 ± 7; Iron content (PGSK probe) ([5]; 10 μM): 76.52 ± 7.86^#; Iron content (PGSK probe) ([5]; 20 μM): 80.28 ± 6.96^##; Iron content (PGSK probe) ([5]; 40 μM): 87.37 ± 9.57^##"
